{"source": "patent US9586994B2", "about": "“CD44V6-derived peptides for treating breast cancer” (KARLSRUHER INSTITUT FÜR TECHNOLOGIE, priority 2012, dated 2017)", "key": {"CD44v6 [1]": {"test_system": "CD44v6", "assay": "Peptide blocking of ErbB ligand- or HGF-induced Erk-kinase phosphorylation in HT29 cells (Western blot)", "type": "cell-based, human", "settings": "peptide 100 ng/ml; for EGF-dependent Erk-phosphorylation: EGF 20 ng/ml", "protocol": "3×10^5 were seeded per well of a 6-well plate and serum-starved for 24 hours. Afterwards the medium inside of each well was reduced to 1 ml and the respective peptide (v6 (both peptides of SEQ ID No.: 2 and 6 were tested), or ctrl peptide) was added at a concentration of 100 ng/ml. The cells then were incubated together with the peptide at 37° C. for 5 mins. Ligand concentration for all peptide blocking experiments was 20 ng/ml.\nThe cells were incubated with the growth factors specified in the particular experiment. Except for the peptide blocking and migration assays, ligand concentration was 5 ng/ml at all times. Prior to induction the cells were treated as indicated in the results section.\nTo assay protein expression via Western blot cells were washed 1× with PBS and afterwards lysed in 2×Laemmli sample buffer (160 mM Tris-HCl pH 6.8, 4% SDS, 16% glycerol, 0.1M DTT, 0.01% bromphenol blue). The sample was sheared through a 26 gauge needle. In succession the lysates were boiled for 5 mins at 99° C. in order to denature the proteins in the sample and then spun down at 10 000 rmp for 1 min Eventually the samples were loaded onto an SDS-PAGE gel.\nIn order to test whether CD44v6 plays a role in the activation of the ErbB family of receptors, a peptide blocking experiment using the 14mers of SEQ ID No. 6 was performed in HT29 cells. The fact that this cell line expresses all ErbB receptors (Wu et al, 2009, see references) and several CD44 variants including also exon v3 and v6 (Orian-Rousseau et al., 2002, see references) makes it a suitable tool to evaluate the co-receptor function of CD44 proteins for the ErbB family. The first ErbB1-ligand that was evaluated was EGF. […] The cells were serum starved for 24 hours and induced with EGF. Phosphorylation of the Erk-Kinase, a downstream target of the ErbB receptor family, was used as a read-out for ErbB receptor activation. HGF was used as a control to test the blocking efficiency of the CD44v6 peptide since the induction of the Erk kinase through Met is dependent on CD44v6 (Orian-Rousseau et al., 2002, see references).\nBesides EGF, five other ligands, namely AR, BC, ER, HB-EGF, and TGFα, can activate the ErbB1 receptor. EGF, AR and TGFα bind to either an ErbB1-homo- or an ErbB1/2-heterodimer. In addition to these dimers, BC, ER and HB-EGF can also bind to an Erb4/4 homo- or an ErbB2/4 heterodimer. It was investigated whether the activation of the ErbB receptors by the indicated ligands is also dependent on CD44v6. HT29 cells were serum-starved for 24 hours and pre-treated with the v6-specific or a control peptide. They were then induced with the indicated ErbB ligands. Erk-kinase phosphorylation was used as a read-out for receptor activation.\nFor this purpose HT29 cells were serum-starved for 24 hours and pre-treated with the v6-specific or a control peptide. They were then induced with the indicated ErbB ligands. Erk-kinase phosphorylation was used as a read-out for receptor activation. All ligands could activate the Erk-kinase. […] These ligands are independent of CD44v6 for their induction of the ErbB receptors. This is especially striking, since EGF and TGF-α address the same receptor pairs (ErbB1/1 or ErbB1/2)."}, "CD44v6 [2]": {"test_system": "CD44v6", "assay": "HGF-induced activation of Met and Erk in HeLa cells (Western blot)", "type": "cell-based, human", "protocol": "FIG. 28: A: Activation of Met and signal transduction induced by HGF depends on CD44v6 in L3.6pl cells. L3.6pl cells were treated with the human v6 peptide (human v6 14mer) or the rat v6 peptide as control prior to induction with 10 ng/ml HGF. Activation of Met and ERK was determined in western blot. The numbers refer to the fold induction. The experiment was repeated at least 5 times. B: Activation of c-Met and signal transduction induced by HGF depends on CD44v6 HeLa cells. Starved HeLa cells respectively HT29 cells were incubated with the v6 peptide (human v6 14mer) or a control peptide for 10 minutes at 37° C. and then induced with 25 ng/ml of HGF for the indicated time points. Cells were then either lysed and the lysates were subjected to Western Blot analysis for phospho-Met and Met. C: Activation of c-Met and signal transduction induced by HGF depends on CD44v6 in HT29 cells. HGF-induced c-Met and Erk phosphorylation in HT29 was determined as described above using phospho-specific antibodies. […]\nThe contribution of CD44v6 to Met signaling in the human epithelial pancreatic cancer cells L3.6pl (derived from Colo 357), the cervix carcinoma cells HeLa and the colon cancer cells HT29 were analysed using the CD44v6 peptide (v6 14mer; v6 5mer tested as well, data not shown)."}}}
{"sequence": "KEQWFGNRWHEGYR [SEQ ID NO: 6, human CD44v6 14mer peptide]", "values": [{"measurement": "EGF-dependent Erk-phosphorylation", "setting": "CD44v6 [1]; HT29, serum-starved, 5 min pre-incubation, listed as CD44v6 peptide", "result": "could be inhibited"}, {"measurement": "EGF-dependent Erk-phosphorylation", "setting": "CD44v6 [1]; HT29, serum-starved, 5 min pre-incubation, listed as human v6 14mer", "result": "inhibited"}, {"measurement": "HGF-dependent Erk-phosphorylation", "setting": "CD44v6 [1]; HT29, serum-starved, 5 min pre-incubation, HGF as control ligand", "result": "could be inhibited"}, {"measurement": "AR-induced activation of the ErbB receptors (Erk phosphorylation)", "setting": "CD44v6 [1]; HT29, AR 20 ng/ml", "result": "could not be inhibited"}, {"measurement": "BC-induced activation of the ErbB receptors (Erk phosphorylation)", "setting": "CD44v6 [1]; HT29, BC 20 ng/ml", "result": "could not be inhibited"}, {"measurement": "ER-dependent Erk-phosphorylation", "setting": "CD44v6 [1]; HT29, ER 20 ng/ml", "result": "inhibited"}, {"measurement": "HB-EGF-induced activation of the ErbB receptors (Erk phosphorylation)", "setting": "CD44v6 [1]; HT29, HB-EGF 20 ng/ml", "result": "could not be inhibited"}, {"measurement": "TGFα-induced activation of the ErbB receptors (Erk phosphorylation)", "setting": "CD44v6 [1]; HT29, TGFα 20 ng/ml", "result": "could not be inhibited"}, {"measurement": "HGF-induced activation of downstream target Erk", "setting": "CD44v6 [2]; peptide before induction with HGF", "result": "able to prevent activation"}, {"measurement": "HGF-induced activation of Met", "setting": "CD44v6 [2]; starved, peptide 10 min 37° C., HGF 25 ng/ml", "result": "able to prevent activation"}]}
